# Test system: Trypanosoma brucei rhodesiense
# Assay: Antiprotozoal activity against Trypanosoma brucei rhodesiense STIB900
# Type: functional, organism-based
row,SMILES,IC50 [µg/mL]
1,COc1cccc2oc3cc4c(c(O)c3c(=O)c12)[C@@H]1C[C@@H](O)C[C@](C)(O4)O1 [CHAETOXANTHONE A],4.7
2,COc1cccc2oc3cc4c(c(O)c3c(=O)c12)C1CCCC(C)(O4)O1 (stereo unspecified) [CHAETOXANTHONE B],9.3
3,COc1cccc2oc3c(Cl)c(O)c([C@H]4CCC[C@@H](C)O4)c(O)c3c(=O)c12 [CHAETOXANTHONE C],42.6

# Test system: Plasmodium falciparum
# Assay: Antimalarial activity against Plasmodium falciparum K1 in human erythrocytes by [3H]hypoxanthine uptake
# Type: functional, organism-based
row,SMILES,IC50 [µg/mL]
1,COc1cccc2oc3cc4c(c(O)c3c(=O)c12)[C@@H]1C[C@@H](O)C[C@](C)(O4)O1 [CHAETOXANTHONE A],3.5
2,COc1cccc2oc3cc4c(c(O)c3c(=O)c12)C1CCCC(C)(O4)O1 (stereo unspecified) [CHAETOXANTHONE B],0.5
3,COc1cccc2oc3c(Cl)c(O)c([C@H]4CCC[C@@H](C)O4)c(O)c3c(=O)c12 [CHAETOXANTHONE C],4

# Test system: L6
# Assay: Cytotoxicity against rat L6 cells
# Type: cell-based
row,SMILES,IC50 [µg/mL]
1,COc1cccc2oc3cc4c(c(O)c3c(=O)c12)[C@@H]1C[C@@H](O)C[C@](C)(O4)O1 [CHAETOXANTHONE A],59.1
2,COc1cccc2oc3cc4c(c(O)c3c(=O)c12)C1CCCC(C)(O4)O1 (stereo unspecified) [CHAETOXANTHONE B],> 90
3,COc1cccc2oc3c(Cl)c(O)c([C@H]4CCC[C@@H](C)O4)c(O)c3c(=O)c12 [CHAETOXANTHONE C],46.7

# Test system: Leishmania donovani
# Assay: Antiprotozoal activity against Leishmania donovani MHOM-ET-67/L82 in mouse peritoneal macrophages
# Type: functional, organism-based
row,SMILES,IC50 [µg/mL]
1,COc1cccc2oc3cc4c(c(O)c3c(=O)c12)[C@@H]1C[C@@H](O)C[C@](C)(O4)O1 [CHAETOXANTHONE A],5.3
2,COc1cccc2oc3cc4c(c(O)c3c(=O)c12)C1CCCC(C)(O4)O1 (stereo unspecified) [CHAETOXANTHONE B],3.4
3,COc1cccc2oc3c(Cl)c(O)c([C@H]4CCC[C@@H](C)O4)c(O)c3c(=O)c12 [CHAETOXANTHONE C],3.1

# Test system: Trypanosoma cruzi
# Assay: Antiprotozoal activity against Trypanosoma cruzi Tulahuen C4 in rat L6 cells
# Type: functional, organism-based
row,SMILES,IC50 [µg/mL]
1,O=C(Cn1ccnc1[N+](=O)[O-])NCc1ccccc1 [BENZNIDAZOLE],0.317
2,COc1cccc2oc3cc4c(c(O)c3c(=O)c12)[C@@H]1C[C@@H](O)C[C@](C)(O4)O1 [CHAETOXANTHONE A],> 10
3,COc1cccc2oc3cc4c(c(O)c3c(=O)c12)C1CCCC(C)(O4)O1 (stereo unspecified) [CHAETOXANTHONE B],7.1
4,COc1cccc2oc3c(Cl)c(O)c([C@H]4CCC[C@@H](C)O4)c(O)c3c(=O)c12 [CHAETOXANTHONE C],1.5

# — ChEMBL document CHEMBL1156639, “Antiprotozoal activities of heterocyclic-substituted xanthones from the marine-derived fungus Chaetomium sp” (J Nat Prod, 2008)
